Assay results as given in the supplement of paper PMC11451515.

Experiments:
Conditions in all cases: 48 h
NOMO1 [1] = assay: cell viability relative to DMSO control; higher = less cytotoxic
Procedure, shortened: (§1)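 In 1536-well plates, 5 μl of leukemia cells were seeded per well: 500 cells/well for NOMO1 or SEM and 1000 cells/well for P12-Ichikawa. Each line had first been adapted for at least four passages in each medium. Library compounds in DMSO were pin-dosed at 11 threefold concentrations between 47 μM and 0.79 nM, and CellTiter-Glo One luminescence was read after 48 h at 37°C. Viability is a per-plate percentage relative to DMSO wells, with cell-free wells as background.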

P12-Ichikawa [2] = assay: as above
Procedure, shortened: as §1

SEM cells [3] = assay: as above
Procedure, shortened: as §1

NOMO1 [4] = assay: AUC of viability dose-response curve (% viability x log10 dose units); higher = less sensitive
Procedure, shortened: (§2)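 Area under the curve was integrated by trapezoidal rule from a log-logistic fit of normalised viability, with curves exceeding full viability scaled and quality-control failures removed. The fit had four parameters over log10 doses. Viability came from CellTiter-Glo One luminescence, normalised per plate to DMSO and cell-free wells, after leukemia cells adapted to each medium (500 or 1000 cells/well, 1536-well plates) were exposed to library compounds in DMSO for 48 h at 37°C. The 11 threefold doses ran from 47 μM to 0.79 nM.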

P12-Ichikawa [5] = assay: as above
Procedure, shortened: as §2

SEM cells [6] = assay: as above
Procedure, shortened: as §2

C[C@]12CC[C@H]3[C@@H](CC[C@@]45O[C@@H]4C(O)=C(C#N)C[C@]35C)[C@@H]1CC[C@@H]2O
cell viability [%]
Conditions	NOMO1 [1]	P12-Ichikawa [2]	SEM cells [3]
HPLM + 10% dialyzed FBS, 0.000781 µM	102	108	89.7
HPLM + 10% dialyzed FBS, 0.00234 µM	111	116	79.7
HPLM + 10% dialyzed FBS, 0.00702 µM	118	113	102
HPLM + 10% dialyzed FBS, 0.0211 µM	112	116	97.3
HPLM + 10% dialyzed FBS, 0.0632 µM	123	125	109
HPLM + 10% dialyzed FBS, 0.19 µM	111	116	106
HPLM + 10% dialyzed FBS, 0.569 µM	110	111	108
HPLM + 10% dialyzed FBS, 1.71 µM	116	115	111
HPLM + 10% dialyzed FBS, 5.12 µM	97.2	113	89.6
HPLM + 10% dialyzed FBS, 15.4 µM	109	107	86.3
HPLM + 10% dialyzed FBS, 46.1 µM	21.2	20.9	12.4
RPMI 5 mM glucose + 10% FBS, 0.000781 µM	111	101	90.9
RPMI 5 mM glucose + 10% FBS, 0.00234 µM	119	103	84.7
RPMI 5 mM glucose + 10% FBS, 0.00702 µM	117	108	95.5
RPMI 5 mM glucose + 10% FBS, 0.0211 µM	127	120	86
RPMI 5 mM glucose + 10% FBS, 0.0632 µM	117	108	90.4
RPMI 5 mM glucose + 10% FBS, 0.19 µM	119	114	81.4
RPMI 5 mM glucose + 10% FBS, 0.569 µM	128	121	75.4
RPMI 5 mM glucose + 10% FBS, 1.71 µM	118	122	84.6
RPMI 5 mM glucose + 10% FBS, 5.12 µM	117	116	56.9
RPMI 5 mM glucose + 10% FBS, 15.4 µM	117	108	58.8
RPMI 5 mM glucose + 10% FBS, 46.1 µM	30.7	12.3	4.92
RPMI 5 mM glucose + 10% dialyzed FBS, 0.000781 µM	110	101	116
RPMI 5 mM glucose + 10% dialyzed FBS, 0.00234 µM	121	103	107
RPMI 5 mM glucose + 10% dialyzed FBS, 0.00702 µM	127	113	121
RPMI 5 mM glucose + 10% dialyzed FBS, 0.0211 µM	132	116	105
RPMI 5 mM glucose + 10% dialyzed FBS, 0.0632 µM	143	114	114
RPMI 5 mM glucose + 10% dialyzed FBS, 0.19 µM	132	114	102
RPMI 5 mM glucose + 10% dialyzed FBS, 0.569 µM	128	111	110
RPMI 5 mM glucose + 10% dialyzed FBS, 1.71 µM	135	115	110
RPMI 5 mM glucose + 10% dialyzed FBS, 5.12 µM	136	109	87.2
RPMI 5 mM glucose + 10% dialyzed FBS, 15.4 µM	125	105	52.8
RPMI 5 mM glucose + 10% dialyzed FBS, 46.1 µM	24.3	16.7	5.45

AUC of viability dose-response curve
Conditions	NOMO1 [4]	P12-Ichikawa [5]	SEM cells [6]
HPLM + 10% dialyzed FBS	457	454	446
RPMI 5 mM glucose + 10% FBS	458	454	363
RPMI 5 mM glucose + 10% dialyzed FBS	456	454	416

CC1(C)[C@@H](O)CC[C@@]2(C)[C@H]1CC[C@]3(C)[C@@H]2C(=O)\C=C/4[C@@H]5C[C@](C)(CC[C@]5(C)CC[C@@]34C)C(O)=O
cell viability [%]
Conditions	NOMO1 [1]	P12-Ichikawa [2]	SEM cells [3]
HPLM + 10% dialyzed FBS, 0.000781 µM	102	99.9	99.3
HPLM + 10% dialyzed FBS, 0.00234 µM	113	125	98.8
HPLM + 10% dialyzed FBS, 0.00702 µM	120	117	99.7
HPLM + 10% dialyzed FBS, 0.0211 µM	127	112	104
HPLM + 10% dialyzed FBS, 0.0632 µM	116	109	105
HPLM + 10% dialyzed FBS, 0.19 µM	113	118	93.9
HPLM + 10% dialyzed FBS, 0.569 µM	118	110	99
HPLM + 10% dialyzed FBS, 1.71 µM	118	113	110
HPLM + 10% dialyzed FBS, 5.12 µM	116	104	99.3
HPLM + 10% dialyzed FBS, 15.4 µM	124	102	90.7
HPLM + 10% dialyzed FBS, 46.1 µM	112	97.2	86.9
RPMI 5 mM glucose + 10% FBS, 0.000781 µM	110	109	98.4
RPMI 5 mM glucose + 10% FBS, 0.00234 µM	99.1	121	113
RPMI 5 mM glucose + 10% FBS, 0.00702 µM	110	116	108
RPMI 5 mM glucose + 10% FBS, 0.0211 µM	116	122	108
RPMI 5 mM glucose + 10% FBS, 0.0632 µM	95.7	114	101
RPMI 5 mM glucose + 10% FBS, 0.19 µM	103	118	113
RPMI 5 mM glucose + 10% FBS, 0.569 µM	102	110	97.3
RPMI 5 mM glucose + 10% FBS, 1.71 µM	95	122	108
RPMI 5 mM glucose + 10% FBS, 5.12 µM	98.1	100	99.6
RPMI 5 mM glucose + 10% FBS, 15.4 µM	93.9	110	101
RPMI 5 mM glucose + 10% FBS, 46.1 µM	86.8	111	86.1
RPMI 5 mM glucose + 10% dialyzed FBS, 0.000781 µM	104	97.5	100
RPMI 5 mM glucose + 10% dialyzed FBS, 0.00234 µM	108	105	92.7
RPMI 5 mM glucose + 10% dialyzed FBS, 0.00702 µM	117	113	112
RPMI 5 mM glucose + 10% dialyzed FBS, 0.0211 µM	115	113	109
RPMI 5 mM glucose + 10% dialyzed FBS, 0.0632 µM	115	108	98.6
RPMI 5 mM glucose + 10% dialyzed FBS, 0.19 µM	103	104	108
RPMI 5 mM glucose + 10% dialyzed FBS, 0.569 µM	116	98.9	114
RPMI 5 mM glucose + 10% dialyzed FBS, 1.71 µM	117	106	103
RPMI 5 mM glucose + 10% dialyzed FBS, 5.12 µM	92	94.6	90.2
RPMI 5 mM glucose + 10% dialyzed FBS, 15.4 µM	97.7	103	107
RPMI 5 mM glucose + 10% dialyzed FBS, 46.1 µM	97.9	96.9	102

AUC of viability dose-response curve
Conditions	NOMO1 [4]	P12-Ichikawa [5]	SEM cells [6]
HPLM + 10% dialyzed FBS	465	464	468
RPMI 5 mM glucose + 10% FBS	448	468	470
RPMI 5 mM glucose + 10% dialyzed FBS	460	461	477

COc1ccc(-n2c(C)c([N+](=O)[O-])c3ccc(O)cc32)cc1
cell viability [%]
Conditions	NOMO1 [1]	P12-Ichikawa [2]	SEM cells [3]
RPMI 5 mM glucose + 10% FBS, 0.000781 µM	111	127	102
RPMI 5 mM glucose + 10% FBS, 0.00234 µM	104	118	103
RPMI 5 mM glucose + 10% FBS, 0.00702 µM	113	118	111
RPMI 5 mM glucose + 10% FBS, 0.0211 µM	114	126	107
RPMI 5 mM glucose + 10% FBS, 0.0632 µM	118	118	120
RPMI 5 mM glucose + 10% FBS, 0.19 µM	126	123	109
RPMI 5 mM glucose + 10% FBS, 0.569 µM	107	122	108
RPMI 5 mM glucose + 10% FBS, 1.71 µM	121	121	122
RPMI 5 mM glucose + 10% FBS, 5.12 µM	98.3	115	127
RPMI 5 mM glucose + 10% FBS, 15.4 µM	119	111	121
RPMI 5 mM glucose + 10% FBS, 46.1 µM	106	105	98.5
RPMI 5 mM glucose + 10% dialyzed FBS, 0.000781 µM	114	119	–
RPMI 5 mM glucose + 10% dialyzed FBS, 0.00234 µM	120	121	–
RPMI 5 mM glucose + 10% dialyzed FBS, 0.00702 µM	126	120	–
RPMI 5 mM glucose + 10% dialyzed FBS, 0.0211 µM	124	122	–
RPMI 5 mM glucose + 10% dialyzed FBS, 0.0632 µM	123	114	–
RPMI 5 mM glucose + 10% dialyzed FBS, 0.19 µM	115	118	–
RPMI 5 mM glucose + 10% dialyzed FBS, 0.569 µM	114	121	–
RPMI 5 mM glucose + 10% dialyzed FBS, 1.71 µM	102	122	–
RPMI 5 mM glucose + 10% dialyzed FBS, 5.12 µM	97.5	106	–
RPMI 5 mM glucose + 10% dialyzed FBS, 15.4 µM	105	112	–
RPMI 5 mM glucose + 10% dialyzed FBS, 46.1 µM	101	102	–

AUC of viability dose-response curve
Conditions	NOMO1 [4]	P12-Ichikawa [5]	SEM cells [6]
HPLM + 10% dialyzed FBS	452	446	469
RPMI 5 mM glucose + 10% FBS	476	465	453
RPMI 5 mM glucose + 10% dialyzed FBS	446	464	468
